Results on 15 compounds are retold here after the OPERA property sets (Mansouri et al. 2018).

`COc1ccccc1N1CCN(CC2CN=C(N)O2)CC1` (stereo not given) came in with a logP of 0.76.

On to `NC1=NCC(CN2CCN(c3ncccn3)CC2)O1` (stereo not given), for which the lipophilicity (logP) came out at 0.21.

`NC1=NCC(CN2CCN(c3ccc(Cl)cc3)CC2)O1` (stereo not given) came in with a lipophilicity (logP) of 1.71.

`NC1=NCC(CN2CCN(c3cccc(C(F)(F)F)c3)CC2)O1` (stereo not given): the logP was 2.21.

`Cc1ccc(N2CCN(CC3CN=C(N)O3)CC2)cc1` (stereo not given) showed a lipophilicity (logP) of 1.23.

The compound `NC1=NCC(CN2CCN(c3cccc(Cl)c3)CC2)O1` (stereo not given) displayed a lipophilicity (logP) of 1.83.

Compound `NC1=NCC(CN2CCN(c3ccccc3)CC2)O1` (stereo not given) returned a logP of 0.85.

With `COc1ccc(N2CCN(CC3CN=C(N)O3)CC2)cc1` (stereo not given), the logP is 0.68.

The compound `NC1=NCC(CN2CCN(c3ccccc3Cl)CC2)O1` (stereo not given) yielded a logP of 1.87.

Regarding `Cc1cccc(N2CCN(CC3CN=C(N)O3)CC2)c1C` (stereo not given), the logP amounted to 2.19.

Regarding `NC1=NCC(CN2CCN(c3ccc(Cl)c(Cl)c3)CC2)O1` (stereo not given), the logP stood at 2.4.

`CCOc1ccccc1N1CCN(CC2CN=C(N)O2)CC1` (stereo not given): the logP was determined as 1.21.

`NC1=NCC(CN2CCN(c3ccccn3)CC2)O1` (stereo not given) gave a logP of 0.48.

`COc1cccc(N2CCN(CC3CN=C(N)O3)CC2)c1` (stereo not given) showed a logP of 0.87.

As for `NC1=NCC(CN2CCN(c3ccc(F)cc3)CC2)O1` (stereo not given), the logP was 1.

In general, logP refers to a log measure of how a compound divides between an organic and an aqueous phase. Higher therefore signals higher lipophilicity.
